How the values were obtained:
[1] = tested on: MDA-MB-231; assay: Cytotoxicity against human MDA-MB-231 cells assessed as growth inhibition after 48 hrs by MTT assay; assay type: functional, cell-based; settings: MDA-MB-231, 48 h
[2] = tested on: A549; assay: Cytotoxicity against human A549 cells assessed as growth inhibition after 48 hrs by MTT assay; assay type: functional, cell-based; settings: A549, 48 h
[3] = tested on: A2780; assay: Cytotoxicity against human A2780 cells assessed as growth inhibition after 48 hrs by MTT assay; assay type: functional, cell-based; settings: A2780, 48 h
[4] = tested on: K562; assay: Cytotoxicity against human K562 cells assessed as growth inhibition after 48 hrs by MTT assay; assay type: functional, cell-based; settings: K562, 48 h
[5] = tested on: A549; assay: Cell cycle arrest in human A549 cells assessed as accumulation at G0/G1 phase after 24 hrs by propidium iodide staining-based flow cytometric analysis; assay type: functional
[6] = tested on: A549; assay: Cell cycle arrest in human A549 cells assessed as accumulation at G1 phase at 1 uM after 24 hrs by propidium iodide staining-based flow cytometric analysis (reference value: 52.73%); assay type: functional
[7] = tested on: A549; assay: Cell cycle arrest in human A549 cells assessed as accumulation at S phase at 1 uM after 24 hrs by propidium iodide staining-based flow cytometric analysis (reference value: 36.98%); assay type: functional
[8] = tested on: A549; assay: Cell cycle arrest in human A549 cells assessed as accumulation at G2/M phase at 1 uM after 24 hrs by propidium iodide staining-based flow cytometric analysis (reference value: 10.29%); assay type: functional
[9] = tested on: A549; assay: Cell cycle arrest in human A549 cells assessed as accumulation at G1 phase at 2 uM after 24 hrs by propidium iodide staining-based flow cytometric analysis (reference value: 52.73%); assay type: functional
[10] = tested on: A549; assay: Cell cycle arrest in human A549 cells assessed as accumulation at S phase at 2 uM after 24 hrs by propidium iodide staining-based flow cytometric analysis (reference value: 36.98%); assay type: functional
[11] = tested on: A549; assay: Cell cycle arrest in human A549 cells assessed as accumulation at G2/M phase at 2 uM after 24 hrs by propidium iodide staining-based flow cytometric analysis (reference value: 10.29%); assay type: functional
[12] = tested on: A549; assay: Induction of apoptosis in human A549 cells after 48 hrs by annexin V-FITC/propidium iodide staining-based flow cytometric analysis; assay type: functional, cell-based
[13] = tested on: A549; assay: Induction of apoptosis in human A549 cells assessed as early apoptotic cells at 1 uM after 48 hrs by annexin V-FITC/propidium iodide staining-based flow cytometric analysis (reference value: 0.86%); assay type: functional
[14] = tested on: A549; assay: Induction of apoptosis in human A549 cells assessed as late apoptotic cells at 1 uM after 48 hrs by annexin V-FITC/propidium iodide staining-based flow cytometric analysis (reference value: 3.94%); assay type: functional
[15] = tested on: A549; assay: Induction of apoptosis in human A549 cells assessed as dead cells at 1 uM after 48 hrs by annexin V-FITC/propidium iodide staining-based flow cytometric analysis (reference value: 0.43%); assay type: functional
[16] = tested on: A549; assay: Induction of apoptosis in human A549 cells assessed as early apoptotic cells at 2 uM after 48 hrs by annexin V-FITC/propidium iodide staining-based flow cytometric analysis (reference value: 0.86%); assay type: functional
[17] = tested on: A549; assay: Induction of apoptosis in human A549 cells assessed as late apoptotic cells at 2 uM after 48 hrs by annexin V-FITC/propidium iodide staining-based flow cytometric analysis (reference value: 3.94%); assay type: functional
[18] = tested on: A549; assay: Induction of apoptosis in human A549 cells assessed as dead cells at 2 uM after 48 hrs by annexin V-FITC/propidium iodide staining-based flow cytometric analysis (reference value: 0.43%); assay type: functional

Question: `CC1Oc2c(-c3ccc(O)cc3)c[nH]c(=O)c2[C@@H]2[C@@H](C)C[C@@H](C)C[C@@H]12` (stereo partly drawn) was tested. Which IC50 [1] did it give?
Answer: The IC50 was greater than 40 µM.

Question: What about the IC50 [2] of the same molecule?
Answer: Its IC50 is greater than 40 µM.

Question: What about the IC50 [3] of the same molecule?
Answer: The IC50 was greater than 40 µM.

Question: And the IC50 [4]?
Answer: The IC50 was greater than 40 µM.

Question: What does the source list for `C/C=C\C[C@H](C)C[C@H](C)/C(O)=C1/C(=O)N/C(=C\c2ccc(O)cc2)C1=O`?
Answer: IC50 [1]: > 40 µM; IC50 [2]: > 40 µM; IC50 [3]: > 40 µM; IC50 [4]: > 40 µM

Question: For `COc1cccc2c1C(=O)c1c(O)c3c(c(O)c1C2=O)C[C@@](O)(C(=O)CO)C[C@@H]3O[C@H]1C[C@H](N)[C@H](O)[C@H](C)O1` [DOXORUBICIN], which IC50 [2] is on record?
Answer: The IC50 was 0.51 µM.

Question: And the IC50 [3]?
Answer: The IC50 was 0.6 µM.

Question: What about the IC50 [4] of the same molecule?
Answer: Its IC50 is 1.1 µM.

Question: For `C/C=C\C[C@H](C)C[C@H](C)/C(O)=C1/C(=O)N[C@H]([C@H](O)c2ccc(O)cc2)C1=O`, which IC50 [1] is on record?
Answer: The IC50 was greater than 40 µM.

Question: What about the IC50 [2] of the same molecule?
Answer: The IC50 was greater than 40 µM.

Question: What about the IC50 [3] of the same molecule?
Answer: The IC50 was greater than 40 µM.

Question: What about the IC50 [4] of the same molecule?
Answer: Its IC50 is greater than 40 µM.

Question: Which results are given for `C=C[C@@H]1C[C@H](C)C[C@H](C)C1c1c(O)cc[nH]c1=O` (stereo partly drawn)?
Answer: IC50 [1]: > 40 µM; IC50 [2]: > 40 µM; IC50 [3]: > 40 µM; IC50 [4]: > 40 µM

Question: What does the source list for `CC(C)(O)[C@@H]1C[C@@H](O)[C@]2(C)[C@H](CC[C@@]3(C)[C@H]2CC[C@H]2Cc4c([nH]c5ccccc45)[C@@]23C)O1` [TERPENDOLE E]?
Answer: IC50 [1]: 39.2 µM; IC50 [2]: 18.8 µM; IC50 [3]: 31.1 µM; IC50 [4]: 38.7 µM

Question: Which results are given for `C/C=C\C[C@H](C)C[C@H](C)/C(O)=C1/C(=O)N[C@@H]([C@@H](O)c2ccc(O)cc2)C1=O`?
Answer: IC50 [1]: > 40 µM; IC50 [2]: > 40 µM; IC50 [3]: > 40 µM; IC50 [4]: > 40 µM

Question: Which results are given for `Cc1cc(O)c2oc(=O)c(O)c(-c3ccc(O)cc3)c2c1`?
Answer: IC50 [1]: > 40 µM; IC50 [2]: > 40 µM; IC50 [3]: > 40 µM; IC50 [4]: > 40 µM

Question: What does the source list for `C/C=C\C[C@@H](C)C[C@@H](C)/C(O)=C1/C(=O)N/C(=C\c2ccc(O)cc2)C1=O`?
Answer: IC50 [1]: > 40 µM; IC50 [2]: > 40 µM; IC50 [3]: > 40 µM; IC50 [4]: > 40 µM

Question: Which results are given for `C=C[C@@H]1C[C@H](C)C[C@H](C)C1c1c(O)ccn(O)c1=O` (stereo partly drawn)?
Answer: IC50 [1]: 1.63 µM; IC50 [2]: 1.24 µM; IC50 [3]: 1.36 µM; IC50 [4]: 1.83 µM; Activity [5]: Dose-dependent effect; Activity [6]: 78.16%; Activity [7]: 17.49%; Activity [8]: 4.35%; Activity [9]: 82.63%; Activity [10]: 16.02%; Activity [11]: 1.35%; Activity [12]: Dose-dependent effect; Activity [13]: 3%; Activity [14]: 21.94%; Activity [15]: 4.25%; Activity [16]: 1.06%; Activity [17]: 28.3%; Activity [18]: 5.41%

Source: ChEMBL document CHEMBL3608280, “Tetramic Acids and Pyridone Alkaloids from the Endolichenic Fungus Tolypocladium cylindrosporum” (J Nat Prod, 2015)
